In patent US6596724B2, “Oxadiazole and thiadiazole derivatives of dihydropyridine NPY antagonists” (Bristol-Myers Squibb Company, priority 2000, dated 2003):
Values belong to the molecule of their own block, whether it stands above or below them.

Tests used:
[1] = biological target: T1, I-125 Bolton-Hunter labeled NPY in human neuroblastoma cells (SK-N-MC) (Homo sapiens, UniProt P25929); settings: cited from earlier work
T1 construct: displaces I-125 Bolton-Hunter labeled NPY in human neuroblastoma cells (SK-N-MC); host or cells: SK-N-MC human neuroblastoma cells (endogenous receptor)
T1 sequence (P25929 1-384): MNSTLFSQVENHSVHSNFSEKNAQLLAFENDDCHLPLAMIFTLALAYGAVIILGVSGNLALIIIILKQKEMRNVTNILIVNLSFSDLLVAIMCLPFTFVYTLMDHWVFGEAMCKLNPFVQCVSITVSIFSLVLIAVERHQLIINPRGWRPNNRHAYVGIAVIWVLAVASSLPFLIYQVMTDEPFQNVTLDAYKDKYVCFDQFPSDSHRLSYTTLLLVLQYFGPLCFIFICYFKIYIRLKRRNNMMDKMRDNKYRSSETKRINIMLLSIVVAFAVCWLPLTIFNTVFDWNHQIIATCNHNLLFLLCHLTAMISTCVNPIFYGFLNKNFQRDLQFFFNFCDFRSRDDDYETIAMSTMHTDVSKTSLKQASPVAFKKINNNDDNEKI

[2] = tested on: NPY-induced increase in intracellular Ca++ in SK-N-MC cells; settings: cited from earlier work
[3] = tested on: NPY-induced pressor response; settings: pithed rat; cited from earlier work
[4] = tested on: NPY-induced contractions in guinea pig basilar artery; settings: cited from earlier work
[5] = biological target: T2, I-125 labeled NPY and PYY in human neuroblastoma cells (Homo sapiens, UniProt P25929); settings: cited from earlier work
T2 construct: displacing I-125 labeled NPY and PYY in human neuroblastoma cells
T2 sequence (P25929 1-384): T1 sequence (P25929 1-384)

[6] = tested on: NPY-related increases in diastolic blood pressure; settings: anesthetized guinea pig model; cited from earlier work

Compound: NC(N)=NCCC[C@@H](NC(=O)C(c1ccccc1)c1ccccc1)C(=O)NCc1ccc(O)cc1 [BIBP 3226]
displacement of I-125 Bolton-Hunter labeled NPY [1]: displaces
antagonism of NPY-induced increase in intracellular Ca++ [2]: antagonized
antagonism of NPY-induced pressor response [3]: antagonizing

Compound: O=P(O)(O)OC1[C@H](OP(=O)(O)O)[C@H](O)C(O)[C@H](O)[C@H]1OP(=O)(O)O (stereo partly drawn) [D-Myo-inositol-1,2,6-triphosphate]
antagonism of NPY-induced contractions [4]: potent but non-competitive antagonist

melting point: 138 to 143 °C
Compound: COC(=O)C1=C(C)NC(C)=C(C(=O)OC)C1c1cccc(NC(=O)NNC(=O)CN2CCC(c3ccccc3)CC2)c1 [Example 18, 4-[3-[[[2-[(4-Phenyl-1-piperidinyl)acetyl]-hydrazino]-carbonyl]amino]phenyl]1,4-dihydro-2,6-dimethyl-3,5-pyridinedicarboxylic acid, dimethyl ester]

melting point: 125 to 130 °C
Compound: COC(=O)C1=C(C)NC(C)=C(C(=O)OC)C1c1cccc(NC(=S)NNC(=O)CN2CCC(c3ccccc3)CC2)c1 [Example 19, 4-[3-[[[2-[(4-Phenyl-1-piperidinyl)acetyl]-hydrazino]-carbonothioyl]amino]phenyl]1,4-dihydro-2,6-dimethyl-3,5-pyridinedicarboxylic acid, dimethyl ester]

melting point: 113 to 116 °C
Compound: COC(=O)C1=C(C)NC(C)=C(C(=O)OC)C1c1cccc(NC(=S)NNC(=O)CN2CCC(c3cccc(OC)c3)CC2)c1 [Example 20, 4-[3-[[[2-[[4-(3-Methoxyphenyl)-1-piperidinyl)acetyl]-hydrazino]-carbonothioyl]amino]phenyl]1,4-dihydro-2,6-dimethyl-3,5-pyridinedicarboxylic acid, dimethyl ester]

melting point: 114 to 120 °C
Compound: COC(=O)C1=C(C)NC(C)=C(C(=O)OC)C1c1ccc(F)c(NC(=S)NNC(=O)CN2CCC(c3cccc(OC)c3)CC2)c1 [Example 22, 4-[4-Fluoro-3-[[[2-[[4-(3-methoxyphenyl)-1-piperidinyl]acetyl]-hydrazino]-carbonothioyl]amino]phenyl]1,4-dihydro-2,6-dimethyl-3,5-pyridinedicarboxylic acid, dimethyl ester]

Compound: CN(C)CC1CCC(CN=C(N)c2ccc(C[C@@H](NC(=O)[C@@H](Cc3ccccc3)NS(=O)(=O)c3ccc4ccccc4c3)C(=O)N3CCCC3)cc2)CC1 (stereo partly shown) [SR 120819A]
displacement of I-125 labeled NPY and PYY [5]: displacing
antagonism of NPY-related increases in diastolic blood pressure [6]: antagonized
